Source: PMC10465233, “Lys-urea-Aad, Lys-urea-Cmc and Lys-urea-Cms as potential pharmacophores for the design of PSMA-targeted radioligands to reduce off-target uptake in kidneys and salivary glands” (Theranostics, 2023)
“And” between values parts separate entries of the source, which are not always exact repeats. Equal entries are not always repeated.

Tested on: LNCaP tumor-bearing mice
Experiment: Ex vivo biodistribution in LNCaP tumor-bearing mice
Set-up: species or system mouse
Settings: for Time of peak tumor uptake: post-injection
Procedure: Imaging, biodistribution and radioligand therapy experiments were performed following previously published procedures using male NOD-scid IL2Rg^null (NSG) or NOD.Cg-Rag1^tm1MomIl2rg^tm1Wjl/SzJ (NRG) mice [10]-[12],[14]-[15]. The experiments were conducted according to the guidelines established by the Canadian Council on Animal Care and approved by Animal Ethics Committee of the University of British Columbia. The mice were briefly sedated by inhalation of 2% isoflurane in oxygen, and implanted subcutaneously with 1×10^7 LNCaP cells behind the left shoulder. The mice were imaged or used in biodistribution studies when the tumor grew to 5-8 mm in diameter over a period of 4-5 weeks.
For biodistribution studies, the mice were injected with the radioligand (2-4 MBq) as described above. For blocking, the mice were co-injected with nonradioactive DCFPyL (0.5 mg). At predetermined time points, the mice were sedated by isoflurane inhalation and euthanized by CO2 inhalation. Blood was withdrawn by cardiac puncture, and organs/tissues of interest were collected, weighed and counted using an automatic gamma counter (Tables S4-S7).

COc1ccc(CCCC(=O)NCC(=O)N[C@@H](CCCCNC(=O)CN2CCN(CC(=O)[O-])CCN(CC(=O)[O-])CCN(CC(=O)[O-])CC2)C(=O)NC[C@H]2CC[C@H](C(=O)N[C@@H](Cc3c4ccccc4cc4ccccc34)C(=O)NCCCC[C@H](NC(=O)N[C@@H](COCC(=O)O)C(=O)O)C(=O)O)CC2)cc1.[177Lu+3] [[^177Lu]Lu-HTK04028]
Adrenal glands uptake (1 h post-injection): 3.25 ± 0.34 %ID/g | Blood uptake (1 h post-injection): 17.7 ± 2.10 %ID/g | Blood:Salivary gland uptake ratio (1 h post-injection): 6.93 ± 0.33 | Bone uptake (1 h post-injection): 0.99 ± 0.21 %ID/g | Brain uptake (1 h post-injection): 0.26 ± 0.03 %ID/g | Fat uptake (1 h post-injection): 1.26 ± 0.21 %ID/g | Heart uptake (1 h post-injection): 4.15 ± 0.31 %ID/g | Intestines uptake (1 h post-injection): 1.23 ± 0.24 %ID/g | Kidneys uptake (1 h post-injection): 8.30 ± 1.58 %ID/g | Lacrimal glands uptake (1 h post-injection): 0.51 ± 0.23 %ID/g | Liver uptake (1 h post-injection): 2.93 ± 0.51 %ID/g | Lungs uptake (1 h post-injection): 7.88 ± 1.77 %ID/g | Muscle uptake (1 h post-injection): 1.32 ± 0.19 %ID/g | Pancreas uptake (1 h post-injection): 1.53 ± 0.22 %ID/g | Salivary glands uptake (1 h post-injection): 2.55 ± 0.21 %ID/g | Spleen uptake (1 h post-injection): 1.53 ± 0.23 %ID/g | Stomach uptake (1 h post-injection): 0.51 ± 0.18 %ID/g | Testes uptake (1 h post-injection): 2.26 ± 0.46 %ID/g | Thyroid uptake (1 h post-injection): 3.30 ± 0.42 %ID/g | Tumor uptake (1 h post-injection): 19.0 ± 5.86 %ID/g | Tumor:Blood uptake ratio (1 h post-injection): 1.11 ± 0.45 | Tumor:Kidney uptake ratio (1 h post-injection): 2.39 ± 0.99 | Tumor:Muscle uptake ratio (1 h post-injection): 14.5 ± 4.46 | Tumor:Salivary gland uptake ratio (1 h post-injection): 7.60 ± 2.89 | Adrenal glands uptake (4 h post-injection): 2.18 ± 0.33 %ID/g | Blood uptake (4 h post-injection): 12.2 ± 1.66 %ID/g | Blood:Salivary gland uptake ratio (4 h post-injection): 7.09 ± 1.45 | Bone uptake (4 h post-injection): 0.63 ± 0.10 %ID/g | Brain uptake (4 h post-injection): 0.19 ± 0.02 %ID/g | Fat uptake (4 h post-injection): 0.89 ± 0.24 %ID/g | Heart uptake (4 h post-injection): 2.67 ± 0.31 %ID/g | Intestines uptake (4 h post-injection): 1.04 ± 0.12 %ID/g | Kidneys uptake (4 h post-injection): 9.21 ± 2.76 %ID/g | Lacrimal glands uptake (4 h post-injection): 0.39 ± 0.19 %ID/g | Liver uptake (4 h post-injection): 2.29 ± 0.55 %ID/g | Lungs uptake (4 h post-injection): 5.79 ± 0.44 %ID/g | Muscle uptake (4 h post-injection): 0.83 ± 0.09 %ID/g | Pancreas uptake (4 h post-injection): 1.24 ± 0.04 %ID/g | Salivary glands uptake (4 h post-injection): 1.75 ± 0.25 %ID/g | Spleen uptake (4 h post-injection): 1.44 ± 0.31 %ID/g | Stomach uptake (4 h post-injection): 0.45 ± 0.06 %ID/g | Testes uptake (4 h post-injection): 2.66 ± 0.41 %ID/g | Thyroid uptake (4 h post-injection): 2.30 ± 0.30 %ID/g | Tumor uptake (4 h post-injection): 42.6 ± 11.6 %ID/g | Tumor:Blood uptake ratio (4 h post-injection): 3.60 ± 1.24 | Tumor:Kidney uptake ratio (4 h post-injection): 4.89 ± 1.58 | Tumor:Muscle uptake ratio (4 h post-injection): 52.2 ± 17.4 | Tumor:Salivary gland uptake ratio (4 h post-injection): 24.5 ± 5.95 | Adrenal glands uptake (24 h post-injection): 0.73 ± 0.13 %ID/g | Blood uptake (24 h post-injection): 0.82 ± 0.11 %ID/g | Blood:Salivary gland uptake ratio (24 h post-injection): 1.88 ± 0.42 | Bone uptake (24 h post-injection): 0.11 ± 0.02 %ID/g | Brain uptake (24 h post-injection): 0.02 ± 0.00 %ID/g | Fat uptake (24 h post-injection): 0.14 ± 0.02 %ID/g | Heart uptake (24 h post-injection): 0.36 ± 0.03 %ID/g | Intestines uptake (24 h post-injection): 0.23 ± 0.05 %ID/g | Kidneys uptake (24 h post-injection): 4.32 ± 0.58 %ID/g | Lacrimal glands uptake (24 h post-injection): 0.05 ± 0.04 %ID/g | Liver uptake (24 h post-injection): 0.54 ± 0.09 %ID/g | Lungs uptake (24 h post-injection): 1.08 ± 0.72 %ID/g | Muscle uptake (24 h post-injection): 0.11 ± 0.02 %ID/g | Pancreas uptake (24 h post-injection): 0.15 ± 0.02 %ID/g | Salivary glands uptake (24 h post-injection): 0.45 ± 0.10 %ID/g | Spleen uptake (24 h post-injection): 0.48 ± 0.14 %ID/g | Stomach uptake (24 h post-injection): 0.31 ± 0.10 %ID/g | Testes uptake (24 h post-injection): 0.55 ± 0.05 %ID/g | Thyroid uptake (24 h post-injection): 0.52 ± 0.08 %ID/g | Tumor uptake (24 h post-injection): 30.2 ± 2.74 %ID/g | Tumor:Blood uptake ratio (24 h post-injection): 37.2 ± 4.22 | Tumor:Kidney uptake ratio (24 h post-injection): 7.06 ± 0.86 | Tumor:Muscle uptake ratio (24 h post-injection): 275 ± 35.3 | Tumor:Salivary gland uptake ratio (24 h post-injection): 69.3 ± 15.8 | Adrenal glands uptake (72 h post-injection): 0.48 ± 0.17 %ID/g | Blood uptake (72 h post-injection): 0.05 ± 0.01 %ID/g | Blood:Salivary gland uptake ratio (72 h post-injection): 0.26 ± 0.06 | Bone uptake (72 h post-injection): 0.05 ± 0.02 %ID/g | Brain uptake (72 h post-injection): 0.01 ± 0.00 %ID/g | Fat uptake (72 h post-injection): 0.06 ± 0.02 %ID/g | Heart uptake (72 h post-injection): 0.12 ± 0.03 %ID/g | Intestines uptake (72 h post-injection): 0.07 ± 0.03 %ID/g | Kidneys uptake (72 h post-injection): 1.77 ± 0.25 %ID/g | Lacrimal glands uptake (72 h post-injection): 0.01 ± 0.01 %ID/g | Liver uptake (72 h post-injection): 0.22 ± 0.02 %ID/g | Lungs uptake (72 h post-injection): 0.18 ± 0.02 %ID/g | Muscle uptake (72 h post-injection): 0.03 ± 0.01 %ID/g | Pancreas uptake (72 h post-injection): 0.05 ± 0.01 %ID/g | Salivary glands uptake (72 h post-injection): 0.19 ± 0.05 %ID/g | Spleen uptake (72 h post-injection): 0.49 ± 0.16 %ID/g | Stomach uptake (72 h post-injection): 0.07 ± 0.07 %ID/g | Testes uptake (72 h post-injection): 0.31 ± 0.05 %ID/g | Thyroid uptake (72 h post-injection): 0.24 ± 0.04 %ID/g | Tumor uptake (72 h post-injection): 26.1 ± 7.29 %ID/g | Tumor:Blood uptake ratio (72 h post-injection): 550 ± 108 | Tumor:Kidney uptake ratio (72 h post-injection): 14.6 ± 2.72 | Tumor:Muscle uptake ratio (72 h post-injection): 886 ± 181 | Tumor:Salivary gland uptake ratio (72 h post-injection): 144 ± 35.6 | Adrenal glands uptake (120 h post-injection): 0.33 ± 0.05 %ID/g | Blood uptake (120 h post-injection): 0.02 ± 0.00 %ID/g | Blood:Salivary gland uptake ratio (120 h post-injection): 0.17 ± 0.04 | Bone uptake (120 h post-injection): 0.04 ± 0.02 %ID/g | Fat uptake (120 h post-injection): 0.03 ± 0.01 %ID/g | Heart uptake (120 h post-injection): 0.07 ± 0.01 %ID/g | Intestines uptake (120 h post-injection): 0.08 ± 0.05 %ID/g | Kidneys uptake (120 h post-injection): 1.16 ± 0.13 %ID/g | Liver uptake (120 h post-injection): 0.16 ± 0.02 %ID/g | Lungs uptake (120 h post-injection): 0.09 ± 0.01 %ID/g | Muscle uptake (120 h post-injection): 0.02 ± 0.00 %ID/g | Pancreas uptake (120 h post-injection): 0.03 ± 0.00 %ID/g | Salivary glands uptake (120 h post-injection): 0.11 ± 0.03 %ID/g | Spleen uptake (120 h post-injection): 0.54 ± 0.15 %ID/g | Stomach uptake (120 h post-injection): 0.10 ± 0.10 %ID/g | Testes uptake (120 h post-injection): 0.22 ± 0.01 %ID/g | Thyroid uptake (120 h post-injection): 0.13 ± 0.02 %ID/g | Tumor uptake (120 h post-injection): ~ 28 %ID/g | Tumor:Blood uptake ratio (120 h post-injection): 1714 ± 320 | Tumor:Kidney uptake ratio (120 h post-injection): 24.9 ± 5.16 | Tumor:Muscle uptake ratio (120 h post-injection): 1825 ± 415 | Tumor:Salivary gland uptake ratio (120 h post-injection): 284 ± 87.9 | Tumor uptake (120 h post-injection, listed as [177Lu]Lu-HTK04028): 28.4 ± 5.11 %ID/g | Peaked average tumor uptake (peak over 1-120 h post-injection): ~ 43 %ID/g and 42.6 %ID/g | Time of peak tumor uptake: 4 h | Time of peak tumor uptake (listed as 177Lu-labeled HTK04028): 4 to 24 h
